Laboratory results reported in PubChem BioAssay (NCI).
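1) Cells in 96-well plates. 2) Compound, 48 h, 5 concentrations. 3) Linear interpolation between surrounding doses. 4) Unreached endpoint = highest concentration. GI50 is the concentration that inhibits growth by half. The concentration for full growth arrest is given as TGI.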

Tests used:
Test in all cases: DTP human tumour cell line panel, 48 h
[1] = system: KM12 colon
[2] = system: TK-10 renal
[3] = system: SF-268 CNS
[4] = system: IGROV1 ovarian
[5] = system: RPMI-8226 leukemia
[6] = system: NCI-H23 lung
[7] = system: NCI-H460 lung
[8] = system: SNB-75 CNS
[9] = system: SK-MEL-5 melanoma
[10] = system: SK-OV-3 ovarian

| Structure (SMILES) | TGI [1] | TGI [2] | TGI [3] | TGI [4] | TGI [5] | TGI [6] | TGI [7] | TGI [8] | TGI [9] | TGI [10] | GI50 [2] | GI50 [10] | GI50 [8] |
| --- | --- | --- | --- | --- | --- | --- | --- | --- | --- | --- | --- | --- | --- |
| COc1ccc(OC)c(NC2=NCCO2)c1 | > 100 µM | > 100 µM | > 100 µM | > 100 µM | > 100 µM | > 100 µM | > 100 µM | > 100 µM | > 100 µM |  |  |  |  |
| C[N+](C)(C)CCOC(=O)/C=C/c1cnc[nH]1 | > 500 µM |  | > 500 µM | > 500 µM | > 500 µM | > 500 µM | > 500 µM | > 500 µM | > 500 µM | > 500 µM |  |  |  |
| N=S(=O)(c1ccccc1)c1ccccc1 | > 100 µM |  | > 100 µM | > 100 µM | > 100 µM | > 100 µM | > 100 µM | > 100 µM | > 100 µM | > 100 µM |  |  |  |
| Cc1nc(N)sc1C(=O)Nc1ncn[nH]1 | > 100 µM | > 100 µM | > 100 µM | > 100 µM | > 100 µM | > 100 µM | > 100 µM |  | > 100 µM | > 100 µM |  |  |  |
| O=C(OCC1CCCN2CCCCC12)c1cccnc1 (configuration not stated) | > 100 µM | > 100 µM | > 100 µM |  | > 100 µM | > 100 µM | > 100 µM | > 100 µM | > 100 µM | > 100 µM |  |  |  |
| Oc1cc(O)c2c(c1)O[C@H](c1cc(O)c(O)c(O)c1)[C@@H](O)C2 |  |  | 58.7 µM | 38.9 µM | 43.9 µM | 58.2 µM | 37.7 µM | 38.7 µM | 60.2 µM | 74.7 µM |  |  |  |
| CC1(C)Oc2ccc3c(=O)cc(-c4cccs4)oc3c2C1C(=O)O (configuration not stated) |  | > 100 µM | > 100 µM | > 100 µM |  | > 100 µM |  |  | > 100 µM | > 100 µM |  |  |  |
| Nc1ccc2nc(Nc3ccc(Cl)c(Cl)c3)cnc2c1 | 32.3 µM | 60.6 µM | 37.8 µM |  | 54.4 µM | 66.5 µM | 45.3 µM | > 100 µM | > 100 µM |  |  |  |  |
| Cc1ccc(/C(O)=C/c2nc3cccnc3[nH]c2=O)cc1 | > 100 µM | > 100 µM | > 100 µM | > 100 µM | > 100 µM | > 100 µM | > 100 µM |  | > 100 µM | > 100 µM |  |  |  |
| C=C1C2C[C@@H]3OC4CC5O[C@]6(CC5OC4C(C)C3OC(=O)CC3CC[C@@H]4OC5C7OC8C[C@](CCC9CC(=C)[C@H](CCC(C[C@H]1C)O2)O9)(OC7C4O3)O[C@@H]85)C[C@@H]1O[C@@]2(CC(C)[C@@H]3OC(CC(=O)CCO)C(O)C[C@@H]3O2)CC(C)[C@@H]1O6 (some centres not stated) | 0.00228 µM |  | 1.61 µM | 1.37 µM |  | < 0.001 µM | 1.33 µM |  | 0.00259 µM | 0.905 µM |  |  |  |
| C/C=C/c1cc2c(c(=O)o1)C(=O)[C@@H](O)[C@H](C)O2 | 31 µM |  | 30 µM | 23.3 µM | 34.5 µM | 32.4 µM | 46.9 µM | 39 µM | 29.4 µM | > 84.4 µM |  |  |  |
| O=C(CNc1nccs1)Nn1cnc2ccc(S(=O)(=O)Nc3nccs3)cc2c1=O | > 100 µM | > 100 µM | > 100 µM | > 100 µM | > 100 µM | > 100 µM | > 100 µM | > 100 µM |  | > 100 µM |  |  |  |
| COc1cc(S(=O)(=O)Nc2ccc(-c3csc(N4C(=O)C(Cl)C4c4cccc(Oc5ccccc5)c4)n3)cc2)ccc1Cl (configuration not stated) | 73.9 µM |  | 28.3 µM | 7.45 µM | > 100 µM | 36.9 µM | > 100 µM | 45.8 µM | > 100 µM | > 100 µM |  |  |  |
| C=CC(C)(C)C1(CC(OC)OC)C(=O)N(C)c2ccccc21 (configuration not stated) | > 25 µM |  | > 25 µM |  | > 25 µM | > 25 µM | > 25 µM | > 25 µM | > 25 µM | > 25 µM |  |  |  |
| Fc1ccc2[nH]cc(-c3nc(-c4c[nH]c5ccncc45)cs3)c2c1 |  | 3.91 µM |  |  |  |  |  | 2.62 µM |  | 3.22 µM | 2.3 µM | 1.65 µM | 1.22 µM |
| Clc1ccc2nc3n[nH]c(Cl)c3nc2c1 | > 100 µM | > 100 µM | > 100 µM |  | > 100 µM | > 100 µM | > 100 µM | > 100 µM | 97.8 µM | > 100 µM |  |  |  |
| Cc1ccc2n(c1)cc(-c1ccc(/C=N/NC(=N)N/N=C/c3ccc(-c4cn5cc(C)ccc5[n+]4C)cc3)cc1)[n+]2C | > 100 µM | > 100 µM | 43.8 µM | > 100 µM | > 100 µM |  | > 100 µM | 35.2 µM | > 100 µM | > 100 µM |  |  |  |
